Measured values reported in US11690845B2, “Methods of administering elagolix” (priority 2020, dated 2023).
Read-outs that look alike come from different tables or passages of the source.

What was measured:
[1] = target: T1, rat gonadotropin-releasing hormone (GnRH) receptor (Rattus norvegicus, UniProt P30969); test: Binding to rat versus human GnRH receptor; settings: rat vs human GnRH receptor
T1 sequence (P30969 1-327): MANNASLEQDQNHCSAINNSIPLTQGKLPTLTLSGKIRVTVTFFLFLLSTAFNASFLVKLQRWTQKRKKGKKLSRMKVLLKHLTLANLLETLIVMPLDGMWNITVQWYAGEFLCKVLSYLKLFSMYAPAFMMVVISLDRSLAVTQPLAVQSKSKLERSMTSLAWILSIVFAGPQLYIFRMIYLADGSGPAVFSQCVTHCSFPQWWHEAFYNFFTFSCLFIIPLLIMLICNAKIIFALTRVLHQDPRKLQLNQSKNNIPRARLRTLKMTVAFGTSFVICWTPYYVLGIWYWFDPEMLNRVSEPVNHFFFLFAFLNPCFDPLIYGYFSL

CYP2C19 = CYP2C19 (Homo sapiens, UniProt P33261); test: In vitro studies: CYP2C19 inhibition; format: in vitro ADME
P-gp = P-gp (Homo sapiens, UniProt P08183); test: Substrate of P-gp; format: in vitro ADME
pregnant rats = test: Embryofetal development study in the rat; format: in vivo
Method: (§2) Embryofetal development studies were conducted in the rat and rabbit. Elagolix was administered by oral gavage to pregnant rats (25 animals/dose) at doses of 0, 300, 600 and 1200 mg/kg/day and to rabbits (20 animals/dose) at doses of 0, 100, 150, and 200 mg/kg/day, during the period of organogenesis (gestation day 6-17 in the rat and gestation day 7-20 in the rabbit).

CYP3A4 = test: In vitro studies: CYP3A4 (CYP3A) induction; format: in vitro ADME; settings: in vitro studies (CYP3A4; b159: CYP3A)
P-glycoprotein (P-gp) = P-glycoprotein (P-gp) (Homo sapiens, UniProt P08183); test: Inhibition of efflux transporter P-gp; format: in vitro ADME
OATP1B1 = target: T2, OATP1B1 (Homo sapiens, UniProt Q9Y6L6); test: Substrate of OATP1B1; format: in vitro ADME
T2 sequence (Q9Y6L6 1-691): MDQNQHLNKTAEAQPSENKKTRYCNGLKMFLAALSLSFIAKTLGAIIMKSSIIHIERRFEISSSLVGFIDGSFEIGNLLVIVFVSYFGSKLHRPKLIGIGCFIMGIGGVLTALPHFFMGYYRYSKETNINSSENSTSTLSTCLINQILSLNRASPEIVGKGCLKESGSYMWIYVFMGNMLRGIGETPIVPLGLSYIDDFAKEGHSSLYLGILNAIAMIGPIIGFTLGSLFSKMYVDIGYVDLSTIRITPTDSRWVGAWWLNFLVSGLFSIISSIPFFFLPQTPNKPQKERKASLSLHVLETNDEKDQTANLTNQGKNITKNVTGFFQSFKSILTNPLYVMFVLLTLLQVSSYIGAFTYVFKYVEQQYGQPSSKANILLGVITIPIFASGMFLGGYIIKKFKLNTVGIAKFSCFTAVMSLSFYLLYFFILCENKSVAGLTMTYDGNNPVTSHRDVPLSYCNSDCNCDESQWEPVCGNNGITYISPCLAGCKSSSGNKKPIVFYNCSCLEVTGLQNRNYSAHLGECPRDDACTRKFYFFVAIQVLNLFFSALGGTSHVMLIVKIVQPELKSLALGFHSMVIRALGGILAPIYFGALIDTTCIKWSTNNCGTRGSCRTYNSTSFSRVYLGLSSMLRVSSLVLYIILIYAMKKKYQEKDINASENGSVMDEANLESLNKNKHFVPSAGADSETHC

[2] = Pre- and postnatal development study in rats; format: in vivo, rat; settings: female, rat, plasma, oral, rats, read-out: maternal plasma concentration
Method: (§1) In a pre- and postnatal development study in rats, elagolix was given in the diet to achieve doses of 0, 100 and 300 mg/kg/day (25 per dose group) from gestation day 6 to lactation day 20. […] Pup survival was decreased from birth to postnatal day 4. […] Smaller body size and effect on startle response were associated with lower pup weights at 300 mg/kg/day. Post-weaning growth, development and behavioral endpoints were unaffected.

rats = test: Pre- and postnatal development study in rats; format: in vivo, rat; settings: for maternal plasma concentration relative to maximal elagolix concentration (Cmax) in humans at the MRHD: rats
Method: as §1

CYP2B6 = test: In vitro studies: CYP2B6 induction; format: in vitro ADME
[3] = Drug interaction studies: pharmacokinetics of elagolix in the presence of co-administered drugs; format: in vivo, human; settings: for Ratio (90% CI) AUC of elagolix, co-administration vs elagolix alone / Ratio (90% CI) Cmax of elagolix, co-administration vs elagolix alone: elagolix 150 mg single dose
Method: Drug interaction studies were performed with elagolix and other drugs likely to be co-administered and with drugs commonly used as probes for pharmacokinetic interactions.

[4] = Pharmacogenomics: elagolix plasma concentrations by SLCO1B1 521T>C genotype; format: in vivo, human; settings: SLCO1B1 521 C/C genotype
Text: Hepatic uptake of elagolix involves the OATP1B1 transporter protein. Higher plasma concentrations of elagolix have been observed in patients who have two reduced function alleles of the gene that encodes OATP1B1 (SLCO1B1 521T>C) (these patients are likely to have reduced hepatic uptake of elagolix; and thus, higher plasma elagolix concentrations). The frequency of this SLCO1B1 521 C/C genotype is generally less than […] in most racial/ethnic groups. Women with this genotype are expected to have approximately 2-fold higher elagolix mean concentrations compared to women with normal transporter function (i.e., SLCO1B1 521T/T genotype). Adverse effects of elagolix have not been fully evaluated in subjects who have two reduced function alleles of the gene that encodes OATP1B1 (SLCO1B1 521T>C). The above listed examples should not be deemed to limit the scope of the invention as claimed.

CYP3A = test: Substrate of / metabolism by CYP3A; format: in vitro ADME
rabbits = test: Embryofetal development study in the rabbit; format: in vivo
Method: as §2

[5] = lactation day 21, 100 mg/kg/day
[6] = lactation day 21, 300 mg/kg/day
[7] = Ketoconazole 400 mg once daily, N 11
[8] = Rifampin 600 mg single dose, N 12
[9] = rabbits, highest, maternally toxic dose

Chain of CYP2C19 (P33261 whole entry): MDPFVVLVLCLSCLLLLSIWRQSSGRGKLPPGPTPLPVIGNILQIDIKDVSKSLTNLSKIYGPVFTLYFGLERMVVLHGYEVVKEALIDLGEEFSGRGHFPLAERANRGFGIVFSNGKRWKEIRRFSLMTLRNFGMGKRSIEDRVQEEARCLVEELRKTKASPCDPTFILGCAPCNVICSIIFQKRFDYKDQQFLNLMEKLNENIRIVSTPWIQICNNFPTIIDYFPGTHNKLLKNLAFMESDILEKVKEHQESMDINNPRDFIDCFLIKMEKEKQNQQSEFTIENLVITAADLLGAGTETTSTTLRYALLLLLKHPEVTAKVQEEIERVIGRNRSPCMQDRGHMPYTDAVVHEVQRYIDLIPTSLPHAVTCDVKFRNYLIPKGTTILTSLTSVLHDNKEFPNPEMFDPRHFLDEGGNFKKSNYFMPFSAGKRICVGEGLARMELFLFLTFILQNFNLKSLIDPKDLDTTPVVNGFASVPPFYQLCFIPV
Chain of P-gp (P08183 whole entry): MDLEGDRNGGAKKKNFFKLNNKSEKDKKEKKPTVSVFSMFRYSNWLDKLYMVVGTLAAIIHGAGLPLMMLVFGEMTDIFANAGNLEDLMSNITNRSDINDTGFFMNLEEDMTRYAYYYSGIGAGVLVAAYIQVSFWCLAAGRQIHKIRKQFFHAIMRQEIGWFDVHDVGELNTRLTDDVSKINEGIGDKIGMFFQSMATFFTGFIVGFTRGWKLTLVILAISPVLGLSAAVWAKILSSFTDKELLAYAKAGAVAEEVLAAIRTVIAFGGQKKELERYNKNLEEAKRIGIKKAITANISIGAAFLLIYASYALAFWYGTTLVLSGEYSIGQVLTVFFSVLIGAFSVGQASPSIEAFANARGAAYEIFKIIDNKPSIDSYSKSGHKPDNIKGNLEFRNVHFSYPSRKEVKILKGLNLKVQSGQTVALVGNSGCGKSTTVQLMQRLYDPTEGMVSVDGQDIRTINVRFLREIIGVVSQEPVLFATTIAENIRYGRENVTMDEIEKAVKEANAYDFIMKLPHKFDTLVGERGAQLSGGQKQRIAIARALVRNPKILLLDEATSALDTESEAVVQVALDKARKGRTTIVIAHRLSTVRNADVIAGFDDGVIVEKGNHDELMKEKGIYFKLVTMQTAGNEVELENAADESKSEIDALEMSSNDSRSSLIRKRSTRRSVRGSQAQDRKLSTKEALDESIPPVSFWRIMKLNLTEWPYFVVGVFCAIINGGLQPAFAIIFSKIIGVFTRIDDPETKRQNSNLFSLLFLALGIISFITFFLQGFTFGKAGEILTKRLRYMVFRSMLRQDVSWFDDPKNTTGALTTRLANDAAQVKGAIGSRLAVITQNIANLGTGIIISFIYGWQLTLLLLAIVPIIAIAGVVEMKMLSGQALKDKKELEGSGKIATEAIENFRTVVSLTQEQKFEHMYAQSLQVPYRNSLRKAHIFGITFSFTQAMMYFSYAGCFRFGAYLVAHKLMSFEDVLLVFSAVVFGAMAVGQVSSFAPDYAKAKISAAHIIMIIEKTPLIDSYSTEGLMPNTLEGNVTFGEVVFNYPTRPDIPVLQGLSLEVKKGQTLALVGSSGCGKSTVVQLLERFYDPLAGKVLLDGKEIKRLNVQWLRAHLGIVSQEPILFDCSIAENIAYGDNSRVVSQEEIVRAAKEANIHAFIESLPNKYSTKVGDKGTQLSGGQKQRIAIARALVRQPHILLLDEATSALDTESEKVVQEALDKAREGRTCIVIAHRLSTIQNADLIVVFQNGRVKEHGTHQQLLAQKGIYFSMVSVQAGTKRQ
Chain of P-glycoprotein (P-gp) (P08183 whole entry): as above

COc1cccc(-c2c(C)n(Cc3c(F)cccc3C(F)(F)F)c(=O)n(C[C@H](NCCCC(=O)O)c3ccccc3)c2=O)c1F [elagolix, 4-((R)-2-[5-(2-fluoro-3-methoxy-phenyl)-3-(2-fluoro-6-trifluoromethyl-benzyl)-4-methyl-2,6-dioxo-3,6-dihydro-2H-pyrimidin-1-yl]-1-phenyl-ethylamino)-butyric acid]
binding to rat GnRH receptor relative to human GnRH receptor [1]: ~1000 fold less | CYP2C19 inhibition (CYP2C19): weak inhibitor | substrate of P-gp (P-gp): substrate | dose with (increased) postimplantation loss, multiple of MRHD (pregnant rats; pregnant rats, oral, organogenesis, mid dose group, based on AUC): 12 times the MRHD | fetal malformations (pregnant rats; rat, any dose level tested): No fetal malformations | maternal deaths (pregnant rats; rats, 300, 600 and 1200 mg/kg/day): six deaths | CYP3A4 / CYP3A induction (CYP3A4): weak to moderate inducer | P-gp inhibition (P-glycoprotein (P-gp)): inhibitor | substrate of OATP1B1 (OATP1B1): substrate | concentration at 21 lactation day [2, 5]: 47 ng/mL | concentration at 21 lactation day [2, 6]: 125 ng/mL | pup birth weights (rats; 300 mg/kg/day): lower birth weights | dams failing to deliver (rats; highest dose (300 mg/kg/day)): one failed to deliver | dams with total litter loss (rats; highest dose (300 mg/kg/day)): two dams | pup survival (rats; highest dose, birth to postnatal day 4): decreased | post-weaning growth, development and behavioral endpoints (rats; rat, in vivo): unaffected | maternal plasma concentration relative to maximal elagolix concentration (Cmax) in humans at the MRHD (rats; [5]): 0.04 fold | maternal plasma concentration relative to maximal elagolix concentration (Cmax) in humans at the MRHD (rats; [6]): 0.1 fold | CYP2B6 induction (CYP2B6): weak to moderate inducer | Ratio (90% CI) AUC of elagolix, co-administration vs elagolix alone [3, 7]: 2.20 | Ratio (90% CI) Cmax of elagolix, co-administration vs elagolix alone [3, 7]: 1.77 | Ratio (90% CI) AUC of elagolix, co-administration vs elagolix alone ([3]; Rifampin 600 mg once daily): 1.65 | Ratio (90% CI) Cmax of elagolix, co-administration vs elagolix alone ([3]; Rifampin 600 mg once daily): 2.00 | Ratio (90% CI) AUC of elagolix, co-administration vs elagolix alone [3, 8]: 5.58 | Ratio (90% CI) Cmax of elagolix, co-administration vs elagolix alone [3, 8]: 4.37 | plasma concentrations of elagolix with concomitant rifampin ([3]; concomitant use of rifampin): increased | changes in elagolix exposures ([3]; elagolix 300 mg twice daily with rosuvastatin (20 mg once daily), sertraline (25 mg once daily) or fluconazole (200 mg single dose)): No clinically significant changes | plasma concentrations in patients with two reduced function alleles of SLCO1B1 521T>C [4]: Higher | elagolix mean concentrations vs women with normal transporter function (SLCO1B1 521T/T) ([4]; expected): approximately 2 fold higher | substrate of CYP3A (CYP3A): substrate | fetal malformations (rabbits; rabbit, any dose level tested): No fetal malformations | dose with spontaneous abortion and total litter loss, multiple of MRHD (rabbits; rabbits, oral, organogenesis, highest, maternally toxic dose, based on AUC): 7 times the MRHD | total litter loss (rabbits; rabbits, 150 mg/kg/day, non-maternally toxic): single total litter loss | spontaneous abortions (rabbits; [9]): three spontaneous abortions | total litter loss (rabbits; [9]): single total litter loss | dose with total litter loss, multiple of MRHD (rabbits; rabbits, lower non-maternally toxic dose of 150 mg/kg/day): 4 times the MRHD
